Here are results for 4 molecules from patent publication US20220016205A1, “METHODS OF OVERCOMING RESISTANCE TO IMMUNE CHECKPOINT INHIBITORS” (Board of Regents, The University of Texas System, priority 2018, published 2022).

The test system of experiment [1] is peritoneal macrophages. The experiment is described as follows: qPCR in peritoneal macrophages co-cultured with 344SQR cells (transwell) with follistatin or K02288. The experiment is classed as cell-based, mouse. The settings on record: 344SQR co-culture plus K02288 compared with 344SQR only (FIG. 3F). (In qPCR the cycle at which signal appears reflects the starting amount.)

Experiment [2] has as its system RAW 264.7 cells. The experiment is described as follows: qPCR in RAW 264.7 cells co-cultured with 344SQR cells (transwell) with follistatin or K02288. Conditions: 344SQR co-culture plus K02288 compared with 344SQR only (FIG. 3E). Format: cell-based, murine. An excerpt: (§1) Quantitative polymerase chain reaction (qPCR). Total RNA was isolated from cells and tumors with Triazol (Life Technologies) according to the manufacturer's protocol. For studies of BMP7, p38α, IL-1α, IL-1β, TNF-α, RANTES, IL-2, and IFN-γ expression, mRNA was retrotranscribed with the iScript™ gDNA Clear cDNA Synthesis Kit (BioRad) and analyzed by qPCR using SYBR Green (Life Technologies) with specific primers according to the manufacturer's protocol. The comparative Ct method was used to calculate the relative abundance of mRNAs compared with ACTB (beta-actin) expression for cancer cells or CD45 expression for immune cells.
Co-culture experiments and treatments. Viable cells were counted with a hemocytometer (0.4% Trypan blue solution) and diluted to 40,000 cells per well in 24-wells plates. Cells from 344SQP, 344SQR, 344SQ ctrl, or 344SQ-shBMP7 tumors were seeded at the top inserts (24-mm Transwell with 0.4-μm pore polycarbonate membrane insert, Sigma-Aldrich), and RAW 264.7 or CD4^+ T cells were seeded at the bottom of the transwell system. […] RNA was then isolated from RAW 264.7 or CD4^+ T cells and analyzed for p38α, IL-1α, IL-1β, TNF-α, RANTES, IL-2 and IFN-γ expression with qPCR. […]

In the next experiment the test system is T-cell. Conditions: Crawley et al., 1997; cited from earlier work.
Another experiment concerns T lymphocytes. The settings on record: Matsuda et al., 1998; cited from earlier work.
The test system of a further experiment is 344SQR shBMP7 tumors. Briefly: Tumor growth, survival and TIL flow cytometry of mice with 344SQR shBMP7 (BMP7-knockdown) tumors treated with checkpoint antibodies. Format: in vivo, 129Sv/Ev mice. The settings on record: antibody 10 mg/kg twice a week for 2 weeks in combination with BMP7 knockdown, compared with control (FIGS. 5A, 5I, 5J). The protocol:
In vivo studies. All mouse studies were approved by the Institutional Animal Care and Use Committee (IACUC) of The University of Texas MD Anderson Cancer Center before their initiation; animal care was provided according to IACUC standards, and all mice had been bred and were maintained in our own specific pathogen-free mouse colony. For RRBS, RPPA and TILs studies, primary tumors were established by subcutaneous injection of 344SQP or 344SQR cells (0.5×10^6 in 100 μL of sterile phosphate buffered saline [PBS]) into the leg of syngeneic 129Sv/Ev mice (female, 12-16 weeks old). Mice were then given intraperitoneal injections of anti-PD1 or control IgG antibodies (10 mg/kg) (Bio X cell), starting on day 4 after tumor cell inoculation and continuing twice per week for a total of 4 doses. At 24 hours after the last anti-PD1 treatment, tumor tissues were collected for DNA (2 mice/group) and protein isolation (2 or 3 mice/group). For TILs isolation, tumor tissues (3 mice/group) were collected a week after the last treatment with anti-PD1. […] Tumors were measured with calipers three times per week and recorded as tumor volume (in mm^3)=width^2×length/2. […] Mouse survival rates were analyzed by using the Kaplan-Meier method and compared with log-rank tests.
Tissue processing and flow cytometry. […] All samples were analyzed with an LSRII flow cytometer and FlowJo software (version 10.0.7). […]
A general note: Flow cytometry measures light scatter and fluorescence of single cells or particles in a stream.

For experiment [3], the system named is RAW 264.7 cells. The experiment is described as follows: qPCR of p38α, IL-1α, IL-1β, TNF-α, RANTES in RAW 264.7 cells treated with BMP7 or BMP7 plus follistatin. Format: cell-based, murine. The settings on record: BMP7 compared to untreated control, 24 or 48 hours (FIG. 3G).
Text: as §1
(§2) Co-culture experiments and treatments. Viable cells were counted with a hemocytometer (0.4% Trypan blue solution) and diluted to 40,000 cells per well in 24-wells plates. Cells from 344SQP, 344SQR, 344SQ ctrl, or 344SQ-shBMP7 tumors were seeded at the top inserts (24-mm Transwell with 0.4-μm pore polycarbonate membrane insert, Sigma-Aldrich), and RAW 264.7 or CD4^+ T cells were seeded at the bottom of the transwell system. […] RNA was then isolated from RAW 264.7 or CD4^+ T cells and analyzed for p38α, IL-1α, IL-1β, TNF-α, RANTES, IL-2 and IFN-γ expression with qPCR.

In experiment [4] the test system is RAW 264.7 cells. Briefly: p38a silencing with siRNAs in RAW 264.7 cells, qPCR / expression analysis. The settings on record: BMP7 treatment of cells treated with siRNAs targeting p38a (FIG. 3K). Format: cell-based, murine.
Text: as §1
Transfection siRNA. siRNA targeting p38a (Life Technologies, Cat #4390771) and its respective negative-control negative control (Life Technologies, Cat #4390843) were reverse-transfected into RAW 264.7 macrophages with Lipofectamine 2000 (Life Technologies) to a final concentration of […].

Experiment [5] has as its system peritoneal macrophages. The experiment is described as follows: qPCR of p38α, IL-1α, IL-1β, TNF-α, RANTES in peritoneal macrophages treated with BMP7 or BMP7 plus follistatin. The settings on record: BMP7 compared to untreated control (FIG. 3G). Format: cell-based, mouse.
Text: as §1, §2

The test system of another experiment is CD4^+ T cells. The experiment is described as follows: qPCR of p38α, IFN-γ, IL-2 in activated CD4+ T cells treated with BMP7 or BMP7 plus follistatin. The experiment is classed as cell-based, mouse.
Text: as §1
Co-culture experiments and treatments. Viable cells were counted with a hemocytometer (0.4% Trypan blue solution) and diluted to 40,000 cells per well in 24-wells plates. Cells from 344SQP, 344SQR, 344SQ ctrl, or 344SQ-shBMP7 tumors were seeded at the top inserts (24-mm Transwell with 0.4-μm pore polycarbonate membrane insert, Sigma-Aldrich), and RAW 264.7 or CD4^+ T cells were seeded at the bottom of the transwell system. CD4^+ T cells were isolated from splenocytes by using Dynabeads Untouched Mouse CD4 Cells Kit (Thermo Fisher Scientific—Life Technologies, Catalog #11416D) and activated with LEAF purified anti-mouse CD3c antibody (5 μg/mL) and LEAF purified anti-mouse CD28 antibody (1 μg/mL) (Biolegend). […] RNA was then isolated from RAW 264.7 or CD4^+ T cells and analyzed for p38α, IL-1α, IL-1β, TNF-α, RANTES, IL-2 and IFN-γ expression with qPCR.
Next, CD4^+ T cells were co-cultured with 344SQP or 344SQR cells, and 344SQR ctrl or 344SQR shBMP7 cells, and the expression of p38α, IFN-γ, and IL-2 analyzed. […] To confirm that these findings depended on BMP7 and not on some other secreted molecule, CD4^+ T cells were treated with BMP7 with or without follistatin and p38α, IFN-γ, and IL-2 expression evaluated. […]

With `COc1cc(-c2cc(-c3cccc(O)c3)cnc2N)cc(OC)c1OC` [K02288, reference compound], the “expression of p38a and p38α-regulated cytokines and chemokines” value in the experiment with peritoneal macrophages [1] and in the experiment on RAW 264.7 cells [2] was “lower expression” each time.

For the molecule `C[S+]([O-])c1ccc(-c2nc(-c3ccncc3)c(-c3ccc(F)cc3)[nH]2)cc1` (stereo not shown) [SB203580], the “T-cell proliferation in response to IL-2” value with T-cell is listed as “suppressed T-cell proliferation”. Also, in the experiment with T lymphocytes, the “transcriptional activation of the IL-2 promoter” value is listed as “suppressed the transcriptional activation”.

For the molecule “anti-PDL1: anti-PDL1 (Durvalumab, Pharmacy MD Anderson)”, in the experiment with 344SQR shBMP7 tumors, the survival result is on record as “increased survival”.

B1: BMP7: bone morphogenetic protein (BMP)-7, secreted protein of the TGF-β superfamily (R&D Systems, Catalog #5666-BP-010) (protein, UniProt P18075 293-431, looked up)
Bone morphogenetic protein 7: STGSKQRSQNRSKTPKNQEALRMANVAENSSSDQRQACKKHELYVSFRDLGWQDWIIAPEGYAAYYCEGECAFPLNSYMNATNHAIVQTLVHFINPETVPKPCCAPTQLNAISVLYFDDSSNVILKKYRNMVVRACGCH
With B1, the “expression of p38a and p38α-regulated cytokines and chemokines” value in the experiment with RAW 264.7 cells [3] and in the experiment with peritoneal macrophages [5] was “lower expression” in each case. Also, the “expression of TNF-α, IL1-β, and CD206” value with RAW 264.7 cells [4] is given as “did not alter”. Also, the p38α expression result in the experiment with CD4^+ T cells (effect of BMP7) is recorded as “led to changes”. The “IFN-γ and IL-2 expression” value in the experiment with CD4^+ T cells (effect of BMP7, via p38α) is on record as “decreased”.
